The structures appear in SMILES notation.

The values that follow come from article PMC13198932, “Pyrazolone-based ERO1 inhibitors in ERO1-driven triple-negative breast cancer and SEPN1-related myopathy: Structure–activity relationship and therapeutic potential” (Pharmacological research, 2025).

The test system of series [1] is E0771 tumors. In words: E0771 breast tumor model in syngeneic C57BL/6 J mice (tumor size, VEGFA ELISA, flow cytometry). It is filed as in vivo. To be noted: 10 mg/kg i.p. once daily for 10 days. The protocol: A 1:1 mixture of polyethylene glycol 400 (PEG400) (Merck, 8.17003.1000) and Cremophor EL (Sigma, C5135–500G) was used to dissolve I29 at a concentration of 10 mM and served as the vehicle control. Initially, I29 was suspended in PEG400, after which Cremophor EL was added to the solution. The mixture was then heated to 80 °C until the compound was fully dissolved. Both the compound and vehicle were diluted 1:10 in physiological saline immediately prior to administration to mice at a dose of 10 mg/kg.
E0771 cells (1 × 10^6) were injected subcutaneously into both flanks of 12 female C57BL/6 J mice. Once the primary tumors reached a volume of 100–200 mm^3 (palpable), the mice were randomized into two groups and treated with either I29 or vehicle (Cremophor and PEG400). I29 was administered intraperitoneally (i.p.) once daily for 10 consecutive days at a dose of 10 mg/kg. Twenty-four hours after the final injection, the mice were euthanized. Tumors were excised, weighed, and processed for flow cytometry analysis of immune cells and immune checkpoints, including PD-1 and PD-L1, as well as for VEGFA quantification by ELISA.
The procedure was described in detail in [29]. Briefly, primary subcutaneous tumors derived from E0771 cells were minced into small fragments and enzymatically digested with 0.5 mg/mL Collagenase IV (Sigma) and 40 μg/mL DNase I in RPMI 1640 medium for 30 min at 37°C. The resulting cells were resuspended in HBSS containing 0.5 % FBS and incubated at 4°C for 20 min with the following antibodies (BioLegend): CD45 BV650 (clone 104; 0.6/100), CD11b PerCP-Cy5.5 (clone M1/70; 0.3/100), Ly6C BV421 (clone HK1.4; 0.6/100), Ly6G AF700 (clone 1A8; 0.6/100), F4/80 PE-Cy7 (clone BM8; 0.3/100), PD-L1 APC (clone 10 F.9G2; 1/100), CD3 BV605 (clone 145–2C11; 0.6/100), CD4 AF700 (clone GK1.5; 0.6/100), CD8 BV785 (clone 53–6.7; 0.6/100), and PD1 (clone 29.F1A12; 0.6/100). Cell viability was determined using the LIVE/DEAD™ Fixable Near IR Viability Kit (Invitrogen, L34981). Samples were acquired using a Cytoflex LX flow cytometer with CytExpert software, and data were analyzed with Kaluza 2.0 software (Beckman Coulter).
Within the CD45 + leukocyte population, monocytic myeloid-derived suppressor cells (M) MDSCs (CD11b+Ly6G−Ly6Chi), polymorphonuclear granulocytic (PMN−) MDSCs (CD11b+Ly6G+Ly6Clo), and tumor-associated macrophages (TAMs; CD11b+Ly6Clo/−F4/80 +) were identified. Total T lymphocytes (CD3 +) were gated within CD45 + population, and frequencies of CD3 +CD4 + and CD3 +CD8 +T cells subsets were quantified. PD1 expression was evaluated on CD4 + and CD8 + T cells, while PD-L1 expression was assessed on MDSCs and TAMs. Expression levels are reported as geometric mean fluorescence intensity (gMFI).
For VEGFA measurements in E0771 tumors, tumors were weighed, and 50 mg of each was isolated and lysed in PBS containing protease inhibitors but no EDTA. Following homogenization, samples were frozen overnight and then subjected to repeated freeze-thaw cycles the next day. Insoluble debris was removed by high-speed centrifugation, and the supernatant was quantified using the BCA assay. A total of 190 μg of protein was then analyzed using a mouse VEGF Quantikine ELISA Kit (MMV00, R&D Systems).
A general note: An ELISA detects its analyte on a solid surface through an enzyme-linked reagent.

Series [2] relates to WT and SEPN1 KO mice. Briefly: Whole-body plethysmography in WT and SEPN1 KO mice. In kind it is in vivo. To be noted: 10 mg/kg i.p. once daily for five days. As to the method:
Wild-type (WT) and SEPN1 knockout (KO) C57BL/6 male mice, aged 4 months, were fed either a selenium-deficient diet or a diet containing 0,4 ppm selenium for four months (cod. 10105101, Charles River). Experimental protocols followed D.lgs. 26/2014 (authorization 19/2008-A; authorization 465/2023-PR to E. Zito). All animal experiments were performed in accordance with the ARRIVE guidelines and complied with relevant national and international laws, regulations, and policies governing the care and use of laboratory animals, including Italian law.
Wild-type (WT) and SEPN1 knockout (KO) male mice, previously fed a selenium-deficient diet or a diet containing 0.4 ppm selenium, were randomized to receive intraperitoneal (i.p.) injections of I29 or vehicle alone. Treatments were administered once daily for five consecutive days at a dose of 10 mg/kg. Twenty-four hours after the final injection, mice underwent whole-body plethysmography (Whole Body Plethysmography by emkaTechnologies) under baseline conditions in ambient air to assess several respiratory parameters reflecting ventilatory efficiency. In particular, tidal volume (TV), breathing frequency (f), peak inspiratory flow (PIF), and mean inspiratory flow (TV/inspiratory time [TI]) were measured. Both intra- and inter-subject coefficients of variation (CV) for TV and f were also computed.

Where [3] appears, read: selenium-supplemented (0.4 ppm) SEPN1 KO mice.

Regarding `O=C1/C(=C/c2ccc(-c3ccccc3)o2)C(C(F)(F)F)=NN1c1ccccc1F` [I29], in series [1] (E0771 tumor-bearing mice), the tolerability result is “well tolerated, with no overt signs of toxicity or weight loss observed”. In series [1] (flow cytometry of tumors), the “PD-1 expression on CD4+ and CD8+ T cells” value is recorded as “remained unchanged”; the “PD-L1 expression in monocytic myeloid-derived suppressor cells (M-MDSCs)” value is listed as “statistically significant reduction”. For the same molecule, in series [1] (vs vehicle), the “VEGFA levels in tumors (ELISA)” value is listed as “reduced”, the tumor volume entry is “no significant differences” and the “tumor weight (ex vivo)” value was “slight reduction in tumor weight”. The respiratory function result in series [2] (SEPN1 KO mice) is reported as “failed to improve respiratory function”. Also, the respiratory parameters result in series [2] (WT mice, independent of selenium content in the diet) is “mild improvement in respiratory parameters”. Also, the “variability in tidal volume (CV TV)” value in series [2] (selenium-deficient SEPN1 KO mice) is listed as “increased CV TV”. In series [2] (setting [3]), the “variability in respiratory frequency (CV f)” value is listed as “concomitant reduction in CV f” and the “variability in tidal volume (CV TV)” value is “consistently reduced CV TV”.
